Assays:
[1] = test system: GLuc secretion in SH-SY5Y cells; assay: SH-SY5Y GLuc secretion assay; assay type: cell-based; conditions: Homo sapiens, read-out: GLuc secretion inhibition EC50
[2] = test system: CD62L expression in Jurkat T cells; assay: CD62L expression by Jurkat T cells; assay type: cell-based, human; conditions: 24 h treatment
Description: Jurkat E6.1 (ATCC TIB-152TM) T cells were cultured in RPMI GlutamaxTM (Life Technologies), supplemented with 10% heat-inactivated fetal calf serum (FCS) (Invitrogen) and penicillin/streptomycin (100 U/ml, 100 µg/ml). Cells were treated with Ipomoeassin F or mycolactone for 24 h, then pelleted and stained with FITC-conjugated anti-human CD62L (clone DREG-56 (BioLegend #304804) at 500 ng/ml) during 40 min at 4°C. Fluorescence signals were acquired on an Accuri CD (BD) and analyzed with the […]
FlowJo X software. […]

HCT-116 cells = assay: Metabolic labelling of nascent proteins in HCT116 cells; assay type: cell-based, human
Description: Metabolic Labelling Assays in HCT116 Cells
HCT116 cells were counted using an automated cell counter (BioRad TC20) immediately prior to each experiment. 3 ml of HCT116 cells at a density of 0.166x10^6 cells/mL were seeded to 6-well plates (0.5x10^6 cells/well) and then incubated at 37 °C and 5% CO 2 for 24 h. The compounds were dissolved in DMSO to make drug stocks (10 mM). The stock solutions were diluted with DMEM high glucose culture medium lacking methionine and cysteine to make a fresh working solution immediately prior to each test. Cells were washed twice and 1ml of fresh DMEM lacking methionine and cysteine was added to each well.
Subsequently, the cells were treated with 250 µl of compound solutions in a total volume of 1 ,250 µl/well.
The plate was then incubated at 37 °C and 5% CO 2 for 30 min before 100 µCi 35S-labelled methionine/cysteine was added (Expre35s35s protein labelling mix). Plates were incubated for a further 30 min, then media collected and cells harvested by scraping after four washes in ice-cold PBS. Total protein was acquired by RIPA extraction from the cell pellet, cytoplasmic fraction was acquired by partial permeabilization of the outer cell membranes with 0.15% Digitonin followed by centrifugation, secreted proteins were acquired by TCA precipitation of the media. […]

HepG2 cells = assay: Pulse-chase analysis of protein secretion in HepG2 cells; assay type: cell-based, human; conditions: for secretory proteins in cell media: HepG2, 100 nM Ipom-F or 42 nM mycolactone 13.5 h, 100 nM bortezomib 2 h
Description: Pulse‐Chase Analysis of Protein Secretion in HepG2 Cells
The secretion assay was performed using a pulse–chase approach as described previously.20 HepG2 cells were treated with DMSO, 100 nM compound 8, 100 nM Ipom-F or […] mycolactone for 13.5 h before initiating the experiment, whereas pre-treatment with bortezomib 100 nM (Stratech) or 2.5 μg/ml brefeldin A were performed for 2 h and 1 h, respectively. Cells were starved in Met‐ and Cys‐free DMEM (Invitrogen) for 20 min at 37°C. Labeling was initiated by addition of fresh starvation medium containing […] [35S]Met and [35S]Cys protein labeling mix (Perkin Elmer; specific activity >1,000 Ci/mmol) for 15 min. After washing with PBS, cells were incubated in serum‐free DMEM supplemented with excess unlabeled L‐Met and L‐Cys (2 mM final concentration) for 2 h. The compounds were included throughout the starvation, pulse and chase. Secreted proteins in the media were recovered by precipitation with 13% trichloroacetic acid, washed in acetone and dissolved in 2x sample buffer. Cells were solubilized with Triton X‐100 lysis buffer (20 mM Tris, pH 7.5, 150 mM NaCl, 1% TX-100, 1 mM EDTA, 1 mM EGTA) supplemented with protease inhibitor cocktail and phenylmethylsulfonyl fluoride. Equal amounts

Compound | EC50 [1] [nM] | IC50 ([2]; Homo sapiens) [nM] | inhibition of production of secreted proteins (HCT-116 cells; HCT-116, 100 nM, 35S labelling) | nascent protein biogenesis in total cellular lysates and cytosolic fractions (HCT-116 cells; HCT-116, 35S labelling) | global protein synthesis (total radiolabeled proteins) (HepG2 cells; HepG2, 100 nM, 13.5 h) | secretory proteins in cell media (HepG2 cells) | IC50 [2] [nM]
C/C=C(\C)C(=O)O[C@@H]1[C@@H](O)[C@@H]2O[C@H]3[C@H](O[C@@H](CCCCC)CCCCCCC(=O)CCC(=O)OC[C@@H](O2)[C@H]1OC(=O)/C=C/c1ccccc1)O[C@H](C)[C@H](OC(C)=O)[C@@H]3O [ipomoeassin F] | ~120 | 6.3 | strong inhibition | lack of inhibition | did not inhibit global protein synthesis | substantial reduction | –
CC(=C\C=C\C(C)=C\[C@H](O)[C@@H](O)C[C@H](C)O)/C=C(C)/C=C/C(=O)O[C@H]1CCCC(=O)O[C@@H]([C@@H](C)C/C(C)=C/[C@@H](C)[C@H](O)C[C@@H](C)O)C/C=C(\C)C[C@@H]1C [mycolactone, reference compound] | – | – | – | – | – | substantial reduction | 6.3
